In general, IC50 refers to the point on the concentration scale where inhibition reaches its midpoint.

SMILES strings stand for the structures.

Tested on in one assay: not listed separately
The assay can be described thus: Immunosuppressive activity in human T cells assessed as inhibition of LFA1-mediated cell proliferation by mixed lymphocyte reaction assay. The format is functional, cell-based.
As to `COc1ccc(-c2cnc3nc(N)nc(N4CCN(C(=O)NCc5ccccc5)CC4)c3n2)cc1OC`, the IC50 was 18 nM. In the case of `CCOc1nc(N)nc2ncc(-c3cccc(OC)c3)nc12`, the IC50 turned out to be 8300 nM.

With `COc1ccc(-c2cnc3nc(N)nc(NCc4cccs4)c3n2)cc1OC`, the IC50 is 4100 nM. On the same count and under the same terms, then `COc1ccc(-c2cnc3nc(N)nc(N4CCN(c5ccc(F)cc5)CC4)c3n2)cc1OC`, with 100 nM; and `CCOc1nc(N)nc2ncc(-c3ccc(CC)cc3)nc12`, with 8200 nM.

Consider `COc1ccc(-c2cnc3nc(N)nc(N4CCN(C(=O)COc5ccccc5)CC4)c3n2)cc1OC`, for which the IC50 is 4 nM. For `CC(C)Oc1nc(N)nc2ncc(-c3ccc(C#N)cc3)nc12`, the IC50 was over 10000 nM. As for `COc1ccc(-c2cnc3nc(N)nc(NC4CCCC4)c3n2)cc1OC`, the IC50 turned out to be 800 nM. Still for that read-out and setting: then `COc1ccc(-c2cnc3nc(N)nc(N4CCN(C(=O)Nc5ccccc5)CC4)c3n2)cc1OC`, with 3.4 nM. Still for that read-out and setting: then `COc1ccc(-c2cnc3nc(N)nc(N4CCN(C(=O)Nc5ccc(F)cc5)CC4)c3n2)cc1OC`, with 7 nM; and `COc1ccc(-c2cnc3nc(N)nc(N4CCN(C(=O)Nc5cccc(C)c5)CC4)c3n2)cc1OC`, with 7 nM; and `COc1ccc(-c2cnc3nc(N)nc(N4CCSCC4)c3n2)cc1OC`, with 400 nM. `COc1ccc(-c2cnc3nc(N)nc(N4CCN(c5ccccc5)CC4)c3n2)cc1OC`: the IC50 worked out at 400 nM. As to `CCOc1nc(N)nc2ncc(-c3ccc(OC)cc3)nc12`, the IC50 is over 10000 nM.

`COc1ccc(-c2cnc3nc(N)nc(OC(C)C)c3n2)cc1OC`: the half-inhibitory concentration (IC50) was 400 nM. On to `COc1ccc(-c2cnc3nc(N)nc(N4CCN(c5cc(Cl)cc(Cl)c5)CC4)c3n2)cc1OC`, for which the 50% inhibitory concentration (IC50) is 3400 nM. `COc1ccc(-c2cnc3nc(N)nc(N4CCN(C(=O)Nc5ccc(C#N)cc5)CC4)c3n2)cc1OC`: the IC50 is 74 nM.

`CCOc1nc(N)nc2ncc(-c3ccc(C#N)cc3)nc12`: the IC50 is over 10000 nM. Consider `CCOc1nc(N)nc2ncc(-c3ccc(F)c(F)c3)nc12`, for which the IC50 is over 10000 nM.

Take `COc1ccc(-c2cnc3nc(N)nc(N4CCN(C(=O)CCc5ccccc5)CC4)c3n2)cc1OC`: the IC50 turned out to be 100 nM. On the same count and under the same terms, then `CC(C)Oc1nc(N)nc2ncc(-c3ccc(C(F)(F)F)cc3)nc12`, with over 10000 nM. Turning to `COc1ccc(-c2cnc3nc(N)nc(N4CCN(C(=O)COc5ccc(Cl)cc5)CC4)c3n2)cc1OC`, the half-inhibitory concentration (IC50) worked out at 0.5 nM.

Consider `Cc1ccc(-c2cnc3nc(N)nc(OC(C)C)c3n2)cc1C`, for which the IC50 amounted to 10000 nM. `COc1ccc(-c2cnc3nc(N)nc(N4CCN(Cc5ccccc5F)CC4)c3n2)cc1OC`: the IC50 is 700 nM. Same read-out and setting: then `CC(C)Oc1nc(N)nc2ncc(-c3ccc(F)c(F)c3)nc12`, with 10000 nM. As to `COc1ccc(-c2cnc3nc(N)nc(NCCc4ccccc4)c3n2)cc1OC`, the IC50 was 6000 nM. For the compound `CCOc1nc(N)nc2ncc(-c3ccc(Cl)c(Cl)c3)nc12`, the IC50 is over 10000 nM. As to `COc1ccc(-c2cnc3nc(N)nc(N4CCN(C(=O)c5ccccc5)CC4)c3n2)cc1OC`, the IC50 stood at 400 nM. For `COc1ccc(-c2cnc3nc(N)nc(NC(C)C)c3n2)cc1OC`, the IC50 worked out at 600 nM. `COc1ccc(-c2cnc3nc(N)nc(N4CCN(C(=O)NCc5ccc(F)cc5)CC4)c3n2)cc1OC`: the IC50 came to 37 nM. Same read-out and setting: then `COc1ccc(-c2cnc3nc(N)nc(N4CCN(c5ccc(C)cc5)CC4)c3n2)cc1OC`, with 300 nM; and `CCOc1nc(N)nc2ncc(-c3ccc(C(F)(F)F)cc3)nc12`, with 10000 nM; and `COc1ccc(-c2cnc3nc(N)nc(NCc4ccccc4)c3n2)cc1OC`, with 13000 nM.

`CCOc1ccc(-c2cnc3nc(N)nc(OC(C)C)c3n2)cc1`: the IC50 is 10000 nM. For the compound `COc1ccc(-c2cnc3nc(N)nc(OC(C)C)c3n2)cc1`, the IC50 was over 10000 nM. `COc1ccc(-c2cnc3nc(N)nc(N4CCN(Cc5c(Cl)cccc5Cl)CC4)c3n2)cc1OC`: the IC50 turned out to be 7600 nM. The same measure, in the same setting: then `COc1ccc(-c2cnc3nc(N)nc(N4CCC(C)CC4)c3n2)cc1OC`, with 800 nM; and `COc1ccc(-c2cnc3nc(N)nc(N4CCN(Cc5ccc(C(C)(C)C)cc5)CC4)c3n2)cc1OC`, with 4300 nM; and `COc1ccc(-c2cnc3nc(N)nc(N4CCOCC4)c3n2)cc1OC`, with 100 nM.

As for `COc1ccc(-c2cnc3nc(N)nc(N4CCN(C(=O)Nc5ccc(C)cc5)CC4)c3n2)cc1OC`, the IC50 was found to be 0.8 nM.

A further assay deals with PBMC. Put plainly: Antiinflammatory activity in human PBMC assessed as inhibition of LPS-induced TNFalpha production. The format is functional, cell-based.
In the case of `CCOc1nc(N)nc2ncc(-c3cccc(OC)c3)nc12`, the IC50 was 10000 nM. As to `COc1ccc(-c2cnc3nc(N)nc(NCc4cccs4)c3n2)cc1OC`, the IC50 is 7200 nM. Still for that read-out and setting: then `COc1ccc(-c2cnc3nc(N)nc(N4CCN(c5ccc(F)cc5)CC4)c3n2)cc1OC`, with 50 nM; and `CCOc1nc(N)nc2ncc(-c3ccc(CC)cc3)nc12`, with 8500 nM. For the compound `COc1ccc(-c2cnc3nc(N)nc(N4CCN(C(=O)COc5ccccc5)CC4)c3n2)cc1OC`, the IC50 was 80 nM. For the compound `CC(C)Oc1nc(N)nc2ncc(-c3ccc(C#N)cc3)nc12`, the IC50 is 6300 nM. As to `COc1ccc(-c2cnc3nc(N)nc(NC4CCCC4)c3n2)cc1OC`, the IC50 came out at 600 nM.

With `COc1ccc(-c2cnc3nc(N)nc(N4CCN(C(=O)Nc5ccccc5)CC4)c3n2)cc1OC`, the IC50 was found to be 90 nM. For the compound `COc1ccc(-c2cnc3nc(N)nc(N4CCN(Cc5ccccc5)CC4)c3n2)cc1OC`, the IC50 was found to be 90 nM.

Take `COc1ccc(-c2cnc3nc(N)nc(N4CCN(C(=O)Nc5ccc(F)cc5)CC4)c3n2)cc1OC`: the IC50 stood at 510 nM. As for `COc1ccc(-c2cnc3nc(N)nc(N4CCN(C(=O)Nc5cccc(C)c5)CC4)c3n2)cc1OC`, the IC50 came out at 100 nM. The same measure, in the same setting: then `COc1ccc(-c2cnc3nc(N)nc(N4CCSCC4)c3n2)cc1OC`, with 500 nM; and `COc1ccc(-c2cnc3nc(N)nc(N4CCN(c5ccccc5)CC4)c3n2)cc1OC`, with 50 nM; and `CCOc1nc(N)nc2ncc(-c3ccc(OC)cc3)nc12`, with 4500 nM. With `COc1ccc(-c2cnc3nc(N)nc(OC(C)C)c3n2)cc1OC`, the IC50 was found to be 2300 nM.

On to `COc1ccc(-c2cnc3nc(N)nc(N4CCN(c5cc(Cl)cc(Cl)c5)CC4)c3n2)cc1OC`, for which the IC50 turned out to be 500 nM. Still for that read-out and setting: then `COc1ccc(-c2cnc3nc(N)nc(N4CCN(C(=O)Nc5ccc(C#N)cc5)CC4)c3n2)cc1OC`, with 630 nM; and `CCOc1nc(N)nc2ncc(-c3ccc(C#N)cc3)nc12`, with over 10000 nM; and `CCOc1nc(N)nc2ncc(-c3ccc(F)c(F)c3)nc12`, with over 10000 nM.

For `COc1ccc(-c2cnc3nc(N)nc(N4CCN(C(=O)CCc5ccccc5)CC4)c3n2)cc1OC`, the IC50 is 10 nM. `CC(C)Oc1nc(N)nc2ncc(-c3ccc(C(F)(F)F)cc3)nc12`: the IC50 came to 9100 nM. On the same count and under the same terms, then `COc1ccc(-c2cnc3nc(N)nc(N4CCN(C(=O)COc5ccc(Cl)cc5)CC4)c3n2)cc1OC`, with 77 nM. Consider `Cc1ccc(-c2cnc3nc(N)nc(OC(C)C)c3n2)cc1C`, for which the IC50 came out at 6700 nM. In the case of `COc1ccc(-c2cnc3nc(N)nc(N4CCN(Cc5ccccc5F)CC4)c3n2)cc1OC`, the IC50 was 200 nM.

Take `CC(C)Oc1nc(N)nc2ncc(-c3ccc(F)c(F)c3)nc12`: the IC50 turned out to be 6600 nM. In the case of `COc1ccc(-c2cnc3nc(N)nc(NCCc4ccccc4)c3n2)cc1OC`, the IC50 amounted to 7100 nM. `CCOc1nc(N)nc2ncc(-c3ccc(Cl)c(Cl)c3)nc12`: the IC50 is over 10000 nM. As to `COc1ccc(-c2cnc3nc(N)nc(N4CCN(C(=O)c5ccccc5)CC4)c3n2)cc1OC`, the IC50 stood at 400 nM. For the compound `COc1ccc(-c2cnc3nc(N)nc(NC(C)C)c3n2)cc1OC`, the IC50 came out at 300 nM. In the case of `COc1ccc(-c2cnc3nc(N)nc(N4CCN(C(=O)NCc5ccc(F)cc5)CC4)c3n2)cc1OC`, the IC50 was found to be 700 nM. With `COc1ccc(-c2cnc3nc(N)nc(N4CCN(c5ccc(C)cc5)CC4)c3n2)cc1OC`, the IC50 stood at 10 nM.

As to `CCOc1nc(N)nc2ncc(-c3ccc(C(F)(F)F)cc3)nc12`, the IC50 is over 10000 nM. On the same count and under the same terms, then `COc1ccc(-c2cnc3nc(N)nc(NCc4ccccc4)c3n2)cc1OC`, with 6500 nM; and `CCOc1ccc(-c2cnc3nc(N)nc(OC(C)C)c3n2)cc1`, with 10000 nM. Regarding `COc1ccc(-c2cnc3nc(N)nc(OC(C)C)c3n2)cc1`, the IC50 was 6200 nM. For the compound `COc1ccc(-c2cnc3nc(N)nc(N4CCN(Cc5c(Cl)cccc5Cl)CC4)c3n2)cc1OC`, the IC50 is 700 nM. As to `COc1ccc(-c2cnc3nc(N)nc(N4CCC(C)CC4)c3n2)cc1OC`, the IC50 was 300 nM. On the same count and under the same terms, then `COc1ccc(-c2cnc3nc(N)nc(N4CCN(Cc5ccc(C(C)(C)C)cc5)CC4)c3n2)cc1OC`, with 700 nM; and `COc1ccc(-c2cnc3nc(N)nc(N4CCOCC4)c3n2)cc1OC`, with 400 nM; and `COc1ccc(-c2cnc3nc(N)nc(N4CCN(C(=O)Nc5ccc(C)cc5)CC4)c3n2)cc1OC`, with 430 nM.

The values above are taken from ChEMBL document CHEMBL1641582, “Synthesis and in vitro evaluation of 2-amino-4-N-piperazinyl-6-(3,4-dimethoxyphenyl)-pteridines as dual immunosuppressive and anti-inflammatory agents” (Bioorg Med Chem Lett, 2011).
